Laboratory results taken from patent publication US10683290B2, “Tricyclic compounds as anticancer agents” (BRISTOL-MYERS SQUIBB COMPANY, priority 2015, dated 2020).

Target: BRD4 (Homo sapiens, UniProt O60885)
Assay: biochemical
Type: binding
Conditions: one of the FRET assays described; read-out: FRET BRD4 IC50

| Compound | IC50 [nM] |
| --- | --- |
| Cc1nnn(C)c1-c1cc2c(cc1F)c1ncc(S(C)(=O)=O)cc1n2[C@H](c1ccccc1F)C1CCOCC1 [Example 25, 5-{8-Fluoro-5-[(S)-(2-fluorophenyl)(oxan-4-yl)methyl]-3-methanesulfonyl-5H-pyrido[3,2-b]indol-7-yl}-1,4-dimethyl-1H-1,2,3-triazole] | < 1 |
| [2H]C([2H])([2H])c1nnn(C)c1-c1cc2c(cc1F)c1ncc(C(C)(C)O)cc1n2C(c1ncccc1OC)C1CCOCC1 (single isomer, unassigned) [Example 41, 2-{8-fluoro-5-[(3-methoxypyridin-2-yl)(oxan-4-yl)methyl}-7-[4-(^2H3)methyl-1-methyl-1H-1,2,3-triazol-5-yl]-5H-pyrido[3,2-b]indol-3-yl]propan-2-ol] | < 5 |
| Cc1nnn(C)c1-c1cc(F)c2c3ncc(C(C)(C)O)cc3n(C(CCC(F)(F)F)CCC(F)(F)F)c2c1 [Example 10, 2-[7-(Dimethyl-1H-1,2,3-triazol-5-yl)-9-fluoro-5-(1,1,1,7,7,7-hexafluoroheptan-4-yl)-5H-pyrido[3,2-b]indol-3-yl]propan-2-ol] | < 5 |
| [2H]C([2H])([2H])c1nnn(C)c1-c1cc2c(cc1F)c1ncc(C(C)(C)O)cc1n2C(c1ccc(F)cn1)C1CCOCC1 (single isomer, unassigned) [Example 45, 2-{8-fluoro-5-[(5-fluoropyridin-2-yl)(oxan-4-yl)methyl}-7-[4-(^2H3)methyl-1-methyl-1H-1,2,3-triazol-5-yl]-5H-pyrido[3,2-b]indol-3-yl]propan-2-ol] | < 5 |
| [2H]C([2H])([2H])c1nnn(C)c1-c1cc2c(cc1F)c1ncc(C(C)(C)O)cc1n2C(CCC)c1ccccn1 (single isomer, unassigned) [Example 48, 2-{8-fluoro-7-[4-(^2H3)methyl-1-methyl-1H-1,2,3-triazol-5-yl]-5-[1-(pyridin-2-yl)butyl]-5H-pyrido[3,2-b]indol-3-yl}propan-2-ol] | < 1500 |
| [2H]C([2H])([2H])c1nnn(C)c1-c1cc2c(cc1F)c1ncc(S(C)(=O)=O)cc1n2[C@H](c1ccccc1F)C1CCOCC1 [Example 28, 5-{8-Fluoro-5-[(S)-(2-fluorophenyl)(oxan-4-yl)methyl]-3-methanesulfonyl-5H-pyrido[3,2-b]indol-7-yl}-4-(^2H3)methyl-1-methyl-1H-1,2,3-triazole] | < 1 |
| [2H]C([2H])([2H])c1nnn(C)c1-c1cc2c(cc1F)c1ncc(C(C)(C)O)cc1n2C(c1ccccc1)C1(C)COC1 (single isomer, unassigned) [Example 64, 2-{8-fluoro-7-[4-(^2H3)methyl-1-methyl-1H-1,2,3-triazol-5-yl]-5-[(3-methyloxetan-3-yl)(phenyl)methyl]-5H-pyrido[3,2-b]indol-3-yl}propan-2-ol] | < 5 |
| [2H]C([2H])([2H])c1nnn(C)c1-c1cc2c(cc1F)c1ncc(C(C)(C)O)cc1n2C(c1cc(OC)ccn1)C1CCOCC1 (single isomer, unassigned) [Example 51, 2-{8-fluoro-5-[(4-methoxypyridin-2-yl)(oxan-4-yl)methyl]-7-[4-(^2H3)methyl-1-methyl-1H-1,2,3-triazol-5-yl]-5H-pyrido[3,2-b]indol-3-yl}propan-2-ol] | < 1500 |
| [2H]C([2H])([2H])c1nnn(C)c1-c1cc2c(cc1F)c1ncc(C(C)(C)O)cc1n2C(CCOC)c1ccccc1 (single isomer, unassigned) [Example 62, 2-[8-fluoro-5-(3-methoxy-1-phenylpropyl)-7-[4-(^2H3)methyl-1-methyl-1H-1,2,3-triazol-5-yl]-5H-pyrido[3,2-b]indol-3-yl]propan-2-ol] | < 1500 |
| [2H]C([2H])([2H])c1nnn(C)c1-c1ccc2c3ncc(C(C)(C)O)cc3n(C(c3ncccc3F)C3CCOCC3)c2c1 (single isomer, unassigned) [Example 71, 2-{5-[(3-Fluoropyridin-2-yl)(oxan-4-yl)methyl]-7-[4-(^2H3)methyl-1-methyl-1H-1,2,3-triazol-5-yl]-5H-pyrido[3,2-b]indol-3-yl}propan-2-ol] | < 1 |
| [2H]C([2H])([2H])c1nnn(C)c1-c1cc2c(cc1F)c1ncc(C(C)(C)O)cc1n2C(CCOC)c1ccccc1 (single isomer, unassigned) [Example 63, 2-[8-fluoro-5-(3-methoxy-1-phenylpropyl)-7-[4-(^2H3)methyl-1-methyl-1H-1,2,3-triazol-5-yl]-5H-pyrido[3,2-b]indol-3-yl]propan-2-ol] | < 5 |
| [2H]C([2H])([2H])c1nnn(C)c1-c1cc2c(cc1F)c1ncc(C(C)(C)O)cc1n2C(CCC)c1ccc(F)cn1 (single isomer, unassigned) [Example 59, 2-{8-fluoro-5-[1-(5-fluoropyridin-2-yl)butyl]-7-[4-(^2H3)methyl-1-methyl-1H-1,2,3-triazol-5-yl]-5H-pyrido[3,2-b]indol-3-yl}propan-2-ol] | < 5 |
| [2H]C([2H])([2H])c1nnn(C)c1-c1cc2c(cc1F)c1ncc(C(C)(C)O)cc1n2C(c1ccccc1)C1(C)COC1 (single isomer, unassigned) [Example 65, 2-{8-fluoro-7-[4-(^2H3)methyl-1-methyl-1H-1,2,3-triazol-5-yl]-5-[(3-methyloxetan-3-yl)(phenyl)methyl]-5H-pyrido[3,2-b]indol-3-yl}propan-2-ol] | < 1500 |
| Cc1ccc2c(n1)c1c(C(N)=O)cc(-c3c(C)noc3C)cc1n2Cc1ccccc1 [Example 1, 5-Benzyl-7-(dimethyl-1,2-oxazol-4-yl)-2-methyl-5H-pyrido[3,2-b]indole-9-carboxamide] | < 1500 |
| [2H]C([2H])([2H])c1nnn(C)c1-c1cc2c(cc1Cl)c1ncc(C(C)(C)O)cc1n2[C@H](c1ccccc1)C1CCOCC1 [Example 77, 2-{8-chloro-7-[4-(^2H3)methyl-1-methyl-1H-1,2,3-triazol-5-yl]-5-[(S)-oxan-4-yl(phenyl)methyl]-5H-pyrido[3,2-b]indol-3-yl}propan-2-ol] | < 1500 |
| Cc1nnn(C)c1-c1cc2c(cc1F)c1ncc(C(C)(C)O)cc1n2C(c1ncccn1)C1CCOCC1 (single isomer, unassigned) [Example 54] | < 5 |
| [2H]C([2H])([2H])c1nnn(C)c1-c1cc2c(cc1F)c1ncc(C(C)(C)O)cc1n2C(c1ccc(C)cn1)C1CCOCC1 (single isomer, unassigned) [Example 57, 2-{8-fluoro-7-[4-(^2H3)methyl-1-methyl-1H-1,2,3-triazol-5-yl]-5-[(5-methylpyridin-2-yl)(oxan-4-yl)methyl]-5H-pyrido[3,2-b]indol-3-yl}propan-2-ol] | < 1500 |
| [2H]C([2H])([2H])c1nnn(C)c1-c1cc2c(cc1Cl)c1ncc(C(C)(C)O)cc1n2C(c1cc(C)on1)C1CCOCC1 (single isomer, unassigned) [Example 78, 2-{8-chloro-5-[(5-methyl-1,2-oxazol-3-yl)(oxan-4-yl)methyl]-7-[4-(^2H3)methyl-1-methyl-1H-1,2,3-triazol-5-yl]-5H-pyrido[3,2-b]indol-3-yl}propan-2-ol] | < 1500 |
| Cc1nnn(C)c1-c1ccc2c3ncc(C(C)(C)O)cc3n(C(CCC(F)(F)F)CCC(F)(F)F)c2c1 [Example 4, 2-[7-(dimethyl-1H-1,2,3-triazol-5-yl)-5-(1,1,1,7,7,7-hexafluoroheptan-4-yl)-5H-pyrido[3,2-b]indol-3-yl]propan-2-ol] | < 5 |
| [2H]C([2H])([2H])c1nnn(C)c1-c1cc2c(cc1Cl)c1ncc(C(C)(C)O)cc1n2C(c1cc(C)on1)C1CCOCC1 (single isomer, unassigned) [Example 79, 2-{8-chloro-5-[(5-methyl-1,2-oxazol-3-yl)(oxan-4-yl)methyl]-7-[4-(^2H3)methyl-1-methyl-1H-1,2,3-triazol-5-yl]-5H-pyrido[3,2-b]indol-3-yl}propan-2-ol] | < 1500 |
| [2H]C([2H])([2H])c1onc(C)c1-c1cc2c(cc1F)c1ncc(C(C)(C)O)cc1n2[C@H](c1ccccc1)C1CCOCC1 [Example 33, 2-{8-Fluoro-7-[5-(^2H3)methyl-3-methyl-1,2-oxazol-4-yl]-5-[(S)-(oxan-4-yl)(phenyl)methyl]-5H-pyrido[3,2-b]indol-3-yl}propan-2-ol] | < 1 |
| Cc1nnn(C)c1-c1cc2c(cc1F)c1ncc(C(C)(C)O)cc1n2C(c1ccc(F)cn1)C1CCOCC1 (single isomer, unassigned) [Example 70, 2-[7-(dimethyl-1H-1,2,3-triazol-5-yl)-8-fluoro-5-[(5-fluoropyridin-2-yl)(oxan-4-yl)methyl]-5H-pyrido[3,2-b]indol-3-yl]propan-2-ol] | < 5 |
| [2H]C([2H])([2H])c1nnn(C)c1-c1cc2c(cc1F)c1ncc(C(C)(C)O)cc1n2C(c1cc(F)ccn1)C1CCOCC1 (racemic) [Example 60, 2-{8-fluoro-5-[(4-fluoropyridin-2-yl)(oxan-4-yl)methyl]-7-[4-(^2H3)methyl-1-methyl-1H-1,2,3-triazol-5-yl]-5H-pyrido[3,2-b]indol-3-yl}propan-2-ol] | < 5 |
| Cc1nnn(C)c1-c1ccc2c3ncc(C(C)(C)O)cc3n(C(CCC(F)(F)F)c3ccccn3)c2c1 (single isomer, unassigned) [Example 7, 2-[7-(dimethyl-1H-1,2,3-triazol-5-yl)-5-[4,4,4-trifluoro-1-(pyridin-2-yl)butyl]-5H-pyrido[3,2-b]indol-3-yl]propan-2-ol] | < 5 |
| CCCC(CCC)n1c2cc(-c3c(C)nnn3C)ccc2c2ncc(C(C)(C)O)cc21 [Example 5, 2-[7-(dimethyl-1H-1,2,3-triazol-5-yl)-5-(heptan-4-yl)-5H-pyrido[3,2-b]indol-3-yl]propan-2-ol] | < 5 |
| [2H]C([2H])([2H])c1nnn(C)c1-c1cc2c(cc1F)c1ncc(C(C)(C)O)cc1n2C(CCC)c1ncccc1F (single isomer, unassigned) [Example 38, 2-{8-fluoro-5-[1-(3-fluoropyridin-2-yl)butyl]-7-[4-(^2H3)methyl-1-methyl-1H-1,2,3-triazol-5-yl}-5H-pyrido[3,2-b]indol-3-yl]propan-2-ol] | < 1 |
| [2H]C([2H])([2H])c1nnn(C)c1-c1cc2c(cc1F)c1ncc(C(C)(C)O)cc1n2[C@H](c1ccccc1)C1CCOCC1 [Example 32, 2-{8-Fluoro-7-[4-(^2H3)methyl-1-methyl-1H-1,2,3-triazol-5-yl]-5-[(S)-(oxan-4-yl)(phenyl)methyl]-5H-pyrido[3,2-b]indol-3-yl}propan-2-ol] | < 1 |
